Results reported in patent publication US11666562B2, “Ilaprazole for inhibiting the release of enveloped viruses from cells” (Northwestern University, priority 2020, dated 2023).
Where two headings read alike, the source gives them in different places.

Experiments:
Vero cells = assay: Vero cell viability/toxicity (96 AQueous One Solution / WST-1); assay type: cell-based
Procedure: (§1) Drug potency and cell toxicity. EC50 calculations were determined by using AAT Bioquest's EC50 calculator. Cell toxicity at different concentrations of drugs as indicated was determine using the Cell Proliferation Reagent WST-1 (Roche Diagnostics) or cellular 96® Aqueous One Reagent viability reagent according to manufacturer's instructions. For 293T cells, the concentration of DMSO was 0.2% or less and assays were carried out with DMEM with 10% serum. Cell toxicity experiments were repeated twice.

HSV-1 = assay: Release of HSV-1 from infected Vero cells, plaque assay; assay type: cell-based, Herpes simplex virus-1 (Kos strain); settings: for EC50: Human alphaherpesvirus 1; for Duration of inhibition of HSV-1 release after a single application: data not shown
Procedure: We infected Vero cells with HSV-1 and HSV-2 for two hours at a multiplicity of infection (MOI in pfu\cell) of 0.1 to assay the antiviral activity of tenatoprazole. Following infection, cells were treated with different concentrations of tenatoprazole. After 24 or 48 h the media fractions were collected and released virus titers were determined by standard plaque assays (30). Tenatoprazole caused a 3-log drop of HSV-1 and 4-5 log drop of HSV-2 in released infectious virus from Vero cells at 24 hours after infection in a dose dependent manner (Table 1, shown in FIG. 5, columns 2 and 3) with calculated EC50's ranging from 48-80 μM. Total virus titer was also determined to differentiate between virus released into the media and infectious particles present in cell lysate. […] The concentrations of tenatoprazole that blocked virus release were nontoxic to Vero cells as determined by a 96® AQueous One Solution cell proliferation assay reagent (Table 1, shown in FIG. 5, column 7). Taken together, tenatoprazole inhibited levels of both released and infectious virus particles without affecting cell viability at effective concentrations.
Herpesvirus infection of Vero cells. Vero cells (0.8×10^6 cells/well of a 6-well plate) were infected with HSV-1 or HSV-2 at a MOI of 0.1 pfu/cell in DMEM with 1% serum for two hours in the C02 incubator at 37° C. In one experiment looking at the effect of tenatoprazole on HSV-2 release from cells 24 and 48 h a MOI of 3 pfu/cell was used. The cell supernatants were aspirated and replaced with 1 ml (24 h) or 2 ml (48 h and 72 h) of DMEM with 1% serum with DMSO or different concentrations of drug (tenatoprazole, ilaprazole, or analogs) dissolved in DMSO. After 24 or 48 h incubation, the cell supernatant was collected and frozen at −80° C. Virus titer in the cell media fraction was determined by standard plaque assays using 10-fold serial dilutions of cell supernatants of Vero cells and incubated for 48 h after which cells were fixed and stained to count the plaques (22). For determination of total virus (extracellular+cytoplasmic), virus infected cells were incubated for 24 h with and without drug presence, then the plate of cells were subjected to 3 cycles of freeze/thawing (−80° C./37° C.) 30 min each prior to collecting the supernatant after centrifugation for measurement of total virus titer. Virus titer was measured by standard plaque assay as above.
as §1

[1] = Vero cells, MOI 0.1, 24 h, read-out: EC50, inhibition of HSV-1 release

COc1ccnc(C[S+]([O-])c2nc3ccc(-n4cccc4)cc3[nH]2)c1C (stereo not drawn) [Ilaprazole, 2-[(4-methoxy-3-methylpyridin-2-yl)methylsulfinyl]-6-pyrrol-1-yl-1H-benzimidazole]
Cell toxicity to Vero cells (Vero cells): did not observe cell toxicity | EC50 (HSV-1; Vero cells, 72 h after a single application (Table 3A columns 2 & 4, HSV-1), read-out: 72 h EC50, inhibition of virus release): 0.8 to 1.2 µM | EC50 (HSV-1; [1]): 3 to 9 µM | Total infectious virus (released plus inside cells), HSV-1 (HSV-1; Vero cells, freeze/thaw lysate): significant drop in total virus | Duration of inhibition of HSV-1 release after a single application (HSV-1): Significant inhibition was still observed at 4 and 5 days

COc1ccc2[nH]c([S+]([O-])Cc3ncc(C)c(OC)c3C)nc2n1 (stereo not drawn) [Tenatoprazole]
Cell toxicity to Vero cells (Vero cells; at concentrations that block virus release, 24 h): nontoxic | EC50 (HSV-1; [1]): 48 to 80 µM | Drop in released infectious HSV-1 (HSV-1; Vero cells, 24 hours after infection, dose dependent): 3 log | Duration of inhibition of HSV-1 release after a single application (HSV-1): began to fall off after 48 h
